We go through three compounds from publication PMC7407272, “Induction of Lysosome Membrane Permeabilization as a Therapeutic Strategy to Target Pancreatic Cancer Stem Cells” (Cancers, 2020).

One data set deals with PIM3 (Homo sapiens, UniProt Q86V86). Put plainly: PIM kinase activity assay. The data set is classed as biochemical. The protocol: (§1) PIM1/3 kinase activities were measured as previously described in Martínez-Gonzalez et al.. HASPIN activity was measured using the commercial ADP GLO assay (Promega), a homogeneous assay measuring ADP accumulation, as a universal product of kinase activity. The assay was done following general manufacturer recommendations and adapting protein to optimal conditions.

In the next data set the target is PIM1 (Homo sapiens, UniProt P11309). Put plainly: PIM kinase activity assay. Format: biochemical. The procedure:
as §1

Data set [1] relates to mouse embryonic stem cells (mESCs). The data set is described as follows: mESC viability (MTS) screen and dose response. Format: cell-based. To be noted: Mus musculus, Embryonic stem cell, 30 h. The procedure: (§2) Mouse embryonic stem cells were cultured in Dulbecco’s Modified Eagle Medium (DMEM) containing 15% Fetal bovine serum (FBS), non-essential amino acids (NEAA), 2-mercaptoethanol, and Leukemia inhibitory factor (LIF) and passaged on gelatinized plates under standard conditions.
(§3) Murine embryonic stem cells (mESCs) were plated at 20,000 cells per well in gelatinized 96 well plates. Compounds from the 640 compound ETP library were added by a Beckman FX 96 tip to achieve a final concentration of 5 µM in each well, and each compound was tested in duplicate. Cells were treated for a total of 30 h prior to assessing cell viability using CellTiter 96® AQueous One Solution Cell Proliferation Assay (MTS) assay according to manufacturer’s instructions (G3582, Promega, Madison, WI, USA). Dose response curves were carried out on mESCs under the same conditions using indicated compounds. To test the viability of CSCs, 10,000 PDAC cells were plated in spheroid conditions and immediately treated with indicated compounds and concentrations for the duration of the sphere formation assay. For adherent non-CSCs, 20,000 cells were plated in wells of standard tissue culture-treated plates (Corning, Corning, NY, USA) and treated the following day with indicated compounds and concentrations. For re-plated spheres (Figure S1B), 7-day-old spheres were filtered using a 40 µM filter (Fisher Scientific, Hampton, NH, USA), washed once with 1× PBS, and incubated with trypsin 0.05% EDTA at 37 °C (Thermo Fisher Scientific, Waltham, MA, USA) to achieve a single cell suspension (approximately 10–30 min, depending on the PDAC culture). Trypsinized cells were counted and 20,000 cells were plated in wells of standard tissue culture-treated plates (Corning) and treated the following day with indicated compounds and concentrations.

Data set [2] is described as follows: mESC viability (MTS) screen and dose response. To be noted: mouse, mouse embryonic stem cells (mESCs), 5 µM, MTS. Format: cell-based, mouse. The procedure: as §2, §3
The subject of a further data set is PDAC2 3D spheres. The data set is described as follows: Viability curves on PDAC2 3D spheres. The data set is classed as cell-based, human. To be noted: for EC50: Homo sapiens. The source says: The PDAC patient-derived xenograft (PDX) Panc354 (referred to hereafter as PDAC3) was obtained from Dr. Manuel Hidalgo under a Material Transfer Agreement with the Spanish National Cancer Centre (CNIO), Madrid, Spain (Reference no. I409181220BSMH). PDAC1, PDAC2 and PDAC4 PDXs were established from primary patient resected tumors. Samples were provided by the BioBank Hospital Ramón y Cajal-IRYCIS (PT13/0010/0002), integrated in the Spanish National Biobanks Network and they were processed following standard operating procedures with the appropriate approval of the Ethical and Scientific Committees (Control no. No. Control: DE-BIOB-73 AC65, RG.BIOB-96 REV, and CI-BIOB-08-10-01 rev), with informed consent and according to Declaration of Helsinki principles. Primary patient tumors were subcutaneously implanted in immunocompromised female 6- to 8-week-old NU-Foxn1nu nude mice (Envigo, Barcelona, Spain) and subsequently passage in vivo to establish PDX PDAC1, PDAC2 and PDAC4. Primary PDX-derived in vitro cultures were established as previously detailed. Briefly, xenografts were minced, enzymatically digested with collagenase (Stem Cell Technologies) for 60 min at 37 °C and after centrifugation for 5 min at 1800 rpm, the cell pellets were resuspended and cultured in RPMI (1:1; #61870-010; Gibco, Waltham, MA, USA) supplemented with 10% FBS (Invitrogen, Waltham, MA, USA), Pen/Strep (1:100; #1500-063; Gibco, Waltham, MA, USA), and Fungizone (1:250; #15290-018; Gibco, Waltham, MA, USA). Primary cultures were tested for Mycoplasma at least every 4 weeks.
(§4) Pancreatic CSC spheres were generated as previously described in ultra-low attachment plates (Corning) using CSC media: serum-free DMEM/F12 medium (1:1; #21331-020; Gibco, Waltham, MA, USA), supplemented with Pen/Strep (1:100; #1500-063; Gibco, Waltham, MA, USA), Fungizone (1:250; #15290-018; Gibco), L-Glutamine (1:100; #25030-024; Gibco, Waltham, MA, USA), B-27 (1:50; #17504-044; Gibco, Waltham, MA, USA) and basic fibroblast growth factor (FGF-b) (1:5000; Gibco, Waltham, MA, USA). All cell culture was carried out at 37 °C in a 5% CO2 humidified incubator. To quantify spheres of > 40 μm, 1 mL of sample volume was analyzed with a CASY® Cell Counter (Roche Applied Sciences, Mannheim, Germany). The CASY® Cell Counter measuring principle is based on a capillary particle counter with pulse area analysis, that permits the determination of cell count, cell concentration, cell volume (peak), and average cell diameter, specifically diameters of 40–80 μm, 80–120 μm and >120 μm.
Murine embryonic stem cells (mESCs) were plated at 20,000 cells per well in gelatinized 96 well plates. Compounds from the 640 compound ETP library were added by a Beckman FX 96 tip to achieve a final concentration of 5 µM in each well, and each compound was tested in duplicate. Cells were treated for a total of 30 h prior to assessing cell viability using CellTiter 96® AQueous One Solution Cell Proliferation Assay (MTS) assay according to manufacturer’s instructions (G3582, Promega, Madison, WI, USA). Dose response curves were carried out on mESCs under the same conditions using indicated compounds. To test the viability of CSCs, 10,000 PDAC cells were plated in spheroid conditions and immediately treated with indicated compounds and concentrations for the duration of the sphere formation assay. […]

The subject of a further data set is PDAC1 cultures. The data set is described as follows: Sphere formation assay. To be noted: 1.25 or 2.5 µM. Format: cell-based, human.
Excerpt: as §4

The next data set has as its system PDAC3 cultures. The data set is described as follows: Sphere formation assay. The data set is classed as cell-based, human. The following applies: 1.25 or 2.5 µM.
Excerpt: as §4

Read-outs that look alike come from different tables or passages of the source. Some results are limits rather than exact numbers.

Sequence of PIM1 (P11309 whole entry): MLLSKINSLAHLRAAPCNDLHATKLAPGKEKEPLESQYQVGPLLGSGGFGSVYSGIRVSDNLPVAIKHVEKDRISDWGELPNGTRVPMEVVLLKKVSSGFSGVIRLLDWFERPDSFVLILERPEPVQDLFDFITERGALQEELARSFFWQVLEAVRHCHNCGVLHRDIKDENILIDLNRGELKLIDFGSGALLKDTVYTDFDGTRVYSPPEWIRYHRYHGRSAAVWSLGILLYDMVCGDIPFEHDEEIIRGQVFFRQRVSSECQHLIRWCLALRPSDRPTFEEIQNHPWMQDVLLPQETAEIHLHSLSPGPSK

A word on the IC50: it is the concentration that gives 50% inhibition. The EC50 is the concentration that produces a half-maximal response. As a reminder, the viability is the share of living cells, or the viability signal relative to a control. A high value points to better survival. `COc1nc2ccc(NCC3CCN(C)CC3)nn2c1C(=O)Nc1cccc(OC(F)(F)F)c1` [Cpd 1]: the 50% inhibitory concentration (IC50) on PIM3 and on PIM1 was greater than 10000 nM throughout. This compound also displayed a concentration giving a half-maximal response (EC50) in data set [1] of 1330 nM. For the same compound, the viability at 30 h, 5 µM in data set [2] was 8%.

For the compound `Fc1ccc(-n2cc(CCCCN3CCC4(CC3)OCc3ccccc34)c3ccccc32)cc1` [siramesine], in the data set with PDAC2 3D spheres (PDAC-2, 30 h, read-out: EC50 (viability), PDAC2 spheres), the EC50 is 5980 nM. Also, the sphere forming capacity entry with PDAC1 cultures and in the data set on PDAC3 cultures was “decreased sphere forming capacity” throughout.

`CN1CCC(CNc2ccc3ncc(C(=O)Nc4cccc(OC(F)(F)F)c4)n3n2)CC1` [Cpd 2]: the “prevention of the effect on PDAC2 CSC survival by Bafilomycin-A” value in the data set on PDAC2 3D spheres (100 nM Bafilomycin 5 h pretreatment) is reported as “≈ 3 fold”. Also, the EC50 with PDAC2 3D spheres (PDAC-2, 72 h, no Bafilomycin, read-out: EC50 (viability), PDAC2 spheres) came out at 3840 nM; in the data set with PDAC2 3D spheres (PDAC-2, pretreated with 100 nM Bafilomycin for 5 h, then 72 h, read-out: EC50 (viability), PDAC2 spheres, +Baf), 9140 nM; in data set [1], 2050 nM. Also, the IC50 on PIM3 (kinase orthogonal assay) was found to be 129 nM; on PIM1 (kinase orthogonal assay) it was 98 nM. In data set [2], the viability at 30 h, 5 µM turned out to be 19%. Besides, the sphere forming capacity result in the data set with PDAC1 cultures and in the data set with PDAC3 cultures was “decreased sphere forming capacity” throughout.
